Assay results reported in ChEMBL document CHEMBL1201862, “PubChem BioAssay data set” (2004).
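Five concentrations, 48 hours, 96-well plates. At the GI50, growth is halved.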 Active and inactive are the calls of the source. No stated cut-off is given here; in the data, active = GI50 up to about 1.1 µM and inactive = higher.

Tests used:
Experiment in all cases: NCI-60 cell line screen, 48 h
OVCAR-3 = test system: OVCAR-3
KM12 = test system: KM12
DLD-1 = test system: DLD-1
A549 = test system: A549
UACC-257 = test system: UACC-257
SNB-75 = test system: SNB-75
UACC-62 = test system: UACC-62
COLO 205 = test system: COLO 205
RXF 393 = test system: RXF 393
HL-60 = test system: HL-60
UO-31 = test system: UO-31
SR = test system: SR
Malme-3M = test system: Malme-3M
OVCAR-8 = test system: OVCAR-8
HOP-62 = test system: HOP-62
SF-268 = test system: SF-268
K562 = test system: K562
EKVX = test system: EKVX
CCRF-CEM = test system: CCRF-CEM
TK-10 = test system: TK-10
HCT-116 = test system: HCT-116
RPMI-8226 = test system: RPMI-8226
ACHN = test system: ACHN
HT-29 = test system: HT-29
LXFL 529 = test system: LXFL 529
SK-OV-3 = test system: SK-OV-3
MOLT-4 = test system: MOLT-4
786-0 = test system: 786-0
SNB-78 = test system: SNB-78
M19-MEL = test system: M19-MEL
SNB-19 = test system: SNB-19
DMS-273 = test system: DMS-273
U-251 = test system: U-251
M14 = test system: M14
SK-MEL-28 = test system: SK-MEL-28
SF-295 = test system: SF-295
IGROV-1 = test system: IGROV-1
SF-539 = test system: SF-539
HCT-15 = test system: HCT-15
SN12C = test system: SN12C
LOX IMVI = test system: LOX IMVI
SW-620 = test system: SW-620
HCC 2998 = test system: HCC 2998
KM-20L2 = test system: KM-20L2
NCI-H460 = test system: NCI-H460
NCI-H23 = test system: NCI-H23
DMS-114 = test system: DMS-114
NCI-H522 = test system: NCI-H522
NCI-H226 = test system: NCI-H226
HOP-92 = test system: HOP-92
OVCAR-5 = test system: OVCAR-5
OVCAR-4 = test system: OVCAR-4
SK-MEL-2 = test system: SK-MEL-2
SK-MEL-5 = test system: SK-MEL-5
CAKI-1 = test system: CAKI-1
HOP-18 = test system: HOP-18
A498 = test system: A498

## CCn1cnc2c(=S)nc(N)[nH]c21
OVCAR-3
  GI50: > 100 µM (inactive)
KM12
  GI50: > 100 µM (inactive)
DLD-1
  GI50: > 100 µM (inactive)
A549
  GI50: > 100 µM (inactive)
UACC-257
  GI50: > 100 µM (inactive)
SNB-75
  GI50: > 100 µM (inactive)
UACC-62
  GI50: > 100 µM (inactive)
COLO 205
  GI50: > 100 µM (inactive)
RXF 393
  GI50: > 100 µM (inactive)
HL-60
  GI50: > 100 µM (inactive)
UO-31
  GI50: > 100 µM (inactive)
SR
  GI50: > 100 µM (inactive)
Malme-3M
  GI50: > 100 µM (inactive)
OVCAR-8
  GI50: > 100 µM (inactive)
HOP-62
  GI50: > 100 µM (inactive)
SF-268
  GI50: > 100 µM (inactive)
K562
  GI50: > 100 µM (inactive)
EKVX
  GI50: > 100 µM (inactive)
CCRF-CEM
  GI50: > 100 µM (inactive)
TK-10
  GI50: > 100 µM (inactive)
HCT-116
  GI50: > 100 µM (inactive)
RPMI-8226
  GI50: > 100 µM (inactive)
ACHN
  GI50: > 100 µM (inactive)
HT-29
  GI50: > 100 µM (inactive)
LXFL 529
  GI50: > 100 µM (inactive)
SK-OV-3
  GI50: > 100 µM (inactive)
MOLT-4
  GI50: > 100 µM (inactive)
786-0
  GI50: > 100 µM (inactive)
SNB-78
  GI50: > 100 µM (inactive)
M19-MEL
  GI50: > 100 µM (inactive)
SNB-19
  GI50: > 100 µM (inactive)
DMS-273
  GI50: > 100 µM (inactive)
U-251
  GI50: > 100 µM (inactive)
M14
  GI50: > 100 µM (inactive)
SK-MEL-28
  GI50: > 100 µM (inactive)
SF-295
  GI50: > 100 µM (inactive)
IGROV-1
  GI50: > 100 µM (inactive)
SF-539
  GI50: > 100 µM (inactive)
HCT-15
  GI50: > 100 µM
SN12C
  GI50: > 100 µM (inactive)
LOX IMVI
  GI50: > 100 µM (inactive)
SW-620
  GI50: > 100 µM (inactive)
HCC 2998
  GI50: > 100 µM (inactive)
KM-20L2
  GI50: > 100 µM (inactive)
NCI-H460
  GI50: > 100 µM (inactive)
NCI-H23
  GI50: > 100 µM (inactive)
DMS-114
  GI50: > 100 µM (inactive)
NCI-H522
  GI50: > 100 µM (inactive)
NCI-H226
  GI50: > 100 µM (inactive)

## NCCCOCC(=O)O
OVCAR-3
  GI50: > 100 µM (inactive)
KM12
  GI50: > 100 µM (inactive)
A549
  GI50: > 100 µM (inactive)
HOP-92
  GI50: > 100 µM (inactive)
UACC-257
  GI50: > 100 µM (inactive)
SNB-75
  GI50: > 100 µM (inactive)
UACC-62
  GI50: > 100 µM (inactive)
COLO 205
  GI50: > 100 µM (inactive)
RXF 393
  GI50: > 100 µM (inactive)
UO-31
  GI50: > 100 µM (inactive)
SR
  GI50: > 100 µM (inactive)
Malme-3M
  GI50: > 100 µM (inactive)
OVCAR-8
  GI50: > 100 µM (inactive)
SF-268
  GI50: > 100 µM (inactive)
K562
  GI50: > 100 µM (inactive)
EKVX
  GI50: > 100 µM (inactive)
TK-10
  GI50: > 100 µM (inactive)
HCT-116
  GI50: > 100 µM (inactive)
RPMI-8226
  GI50: > 100 µM (inactive)
ACHN
  GI50: > 100 µM (inactive)
HT-29
  GI50: > 100 µM (inactive)
LXFL 529
  GI50: > 100 µM (inactive)
SK-OV-3
  GI50: > 100 µM (inactive)
OVCAR-5
  GI50: > 100 µM (inactive)
MOLT-4
  GI50: > 100 µM (inactive)
786-0
  GI50: > 100 µM (inactive)
SNB-78
  GI50: > 100 µM (inactive)
M19-MEL
  GI50: > 100 µM (inactive)
SNB-19
  GI50: > 100 µM (inactive)
OVCAR-4
  GI50: > 100 µM (inactive)
DMS-273
  GI50: > 100 µM (inactive)
U-251
  GI50: > 100 µM (inactive)
SK-MEL-28
  GI50: > 100 µM (inactive)
SF-295
  GI50: > 100 µM (inactive)
IGROV-1
  GI50: > 100 µM (inactive)
SF-539
  GI50: > 100 µM (inactive)
HCT-15
  GI50: > 100 µM
SN12C
  GI50: > 100 µM (inactive)
SK-MEL-2
  GI50: > 100 µM (inactive)
SW-620
  GI50: > 100 µM (inactive)
HCC 2998
  GI50: > 100 µM (inactive)
KM-20L2
  GI50: > 100 µM (inactive)
SK-MEL-5
  GI50: > 100 µM (inactive)
NCI-H23
  GI50: > 100 µM (inactive)
DMS-114
  GI50: > 100 µM (inactive)
NCI-H226
  GI50: > 100 µM (inactive)

## CC(=O)Nc1ccc(/C=C/C(=O)c2sc(C(N)=S)nc2C)cc1
OVCAR-3
  GI50: > 100 µM (inactive)
CAKI-1
  GI50: > 100 µM (inactive)
KM12
  GI50: > 100 µM (inactive)
DLD-1
  GI50: > 100 µM (inactive)
A549
  GI50: > 100 µM (inactive)
HOP-92
  GI50: > 100 µM (inactive)
UACC-257
  GI50: > 100 µM (inactive)
SNB-75
  GI50: > 100 µM (inactive)
UACC-62
  GI50: > 100 µM (inactive)
COLO 205
  GI50: > 100 µM (inactive)
RXF 393
  GI50: > 100 µM (inactive)
HL-60
  GI50: > 100 µM (inactive)
UO-31
  GI50: > 100 µM (inactive)
Malme-3M
  GI50: > 100 µM (inactive)
OVCAR-8
  GI50: > 100 µM (inactive)
HOP-62
  GI50: > 100 µM (inactive)
SF-268
  GI50: > 100 µM (inactive)
K562
  GI50: > 100 µM (inactive)
EKVX
  GI50: > 100 µM (inactive)
CCRF-CEM
  GI50: 81.1 µM (inactive)
TK-10
  GI50: > 100 µM (inactive)
RPMI-8226
  GI50: > 100 µM (inactive)
HT-29
  GI50: > 100 µM (inactive)
HOP-18
  GI50: > 100 µM (inactive)
SK-OV-3
  GI50: > 100 µM (inactive)
OVCAR-5
  GI50: > 100 µM (inactive)
MOLT-4
  GI50: > 100 µM (inactive)
786-0
  GI50: > 100 µM (inactive)
SNB-78
  GI50: > 100 µM (inactive)
M19-MEL
  GI50: > 100 µM (inactive)
A498
  GI50: > 100 µM (inactive)
DMS-273
  GI50: > 100 µM (inactive)
U-251
  GI50: > 100 µM (inactive)
SK-MEL-28
  GI50: > 100 µM (inactive)
SF-295
  GI50: > 100 µM (inactive)
IGROV-1
  GI50: > 100 µM (inactive)
SF-539
  GI50: > 100 µM (inactive)
HCT-15
  GI50: > 100 µM
SN12C
  GI50: > 100 µM (inactive)
LOX IMVI
  GI50: > 100 µM (inactive)
SK-MEL-2
  GI50: > 100 µM (inactive)
SW-620
  GI50: > 100 µM (inactive)
HCC 2998
  GI50: > 100 µM (inactive)
KM-20L2
  GI50: > 100 µM (inactive)
NCI-H460
  GI50: > 100 µM (inactive)
SK-MEL-5
  GI50: > 100 µM (inactive)
NCI-H23
  GI50: > 100 µM (inactive)
DMS-114
  GI50: > 100 µM (inactive)
NCI-H522
  GI50: > 100 µM (inactive)
NCI-H226
  GI50: > 100 µM (inactive)
